Test results published in US20220002280A1, “COMPOUNDS AND METHODS OF USE” (Ferro Therapeutics, Inc., priority 2019, published 2022).
Structures can show the parent of a compound that is named as a salt.

Tests used:
Assay type in all cases: cell-based, human
[1] = tested on: 786-O; assay: Cell proliferation (Alamar Blue) assay, 786-O; settings: 786-O cells, 24 h treatment
Method: (§1) A cell viability assay was performed to assess the potency of the compounds in human cancer cell lines 786-0 (renal cell carcinoma), SJSA-1 (osteosarcoma), and/or A431 (epidermoid carcinoma). Additional cell lines, such as pancreatic cancer cell lines (e.g., Panc 02.13, BxPC-3, Panc 12, Panc 02.03, Panc 6.03, PSN-1, HPAC, and Capan-1), prostate cancer cell lines (e.g., PC-3, DU145, 22Rv1, NCI-H660, BPH1, LNCaP, BM-1604, and MDA PCa 2b), etc., can be tested in a similar method.
(§2) Cells (SJSA-1, 786-0 and/or A431) were seeded (5000 cells/100 μL/well) in 96-well tissue culture plate and incubated at 37° C./5% CO2 for 16-24 hours. The cells were then treated with compounds (25 μL of 5×). The compound concentrations were 10-0.0005 μM prepared in 3-fold serial dilutions with final DMSO concentration of 1%. The plates were then incubated for 24h at 37° C./5% CO2 in a moist environment. Then Alamar Blue™ reagent (final concentration 1×-12.5 μL) was added to each well and incubated for 1.5 hours at 37° C./5% CO2. The plates were read on fluorescence reader at 540 nm excitation and 590 nm emission wavelengths. The IC50 values were subsequently determined using a sigmoidal dose-response curve (variable slope) in GraphPad Prism® 5 software.

[2] = tested on: A431; assay: Cell proliferation (Alamar Blue) assay, A431; settings: 24 h treatment
Method: as §1, §2

[3] = tested on: SJSA-1; assay: Cell proliferation (Alamar Blue) assay, SJSA-1; settings: SJSA-1 cells, 24 h treatment
Method: as §1, §2

[4] = Homo sapiens, A-431, A431 cells

| IC50 ([1]; hydrochloride) [µM] | IC50 ([2]; A431 cells, hydrochloride) [µM] | IC50 ([3]; hydrochloride) [µM] | IC50 ([1]; Homo sapiens, 786-0, 24 h) [µM] | IC50 [2, 4] [µM] | IC50 ([3]; Homo sapiens) [µM] | SMILES |
| --- | --- | --- | --- | --- | --- | --- |
| 0.008 | 6.87 | 0.0115 |  |  |  | C#CC(=O)N1[C@@H](CCCC)Cc2cc(OC)ccc2[C@@H]1c1ccc(NC23CC4CC(CC(C4)C2)C3)cc1 [Compound 101, 1-((1S,3S)-1-(4-(((3R,5R,7R)-adamantan-1-yl)amino)phenyl)-3-butyl-6-methoxy-3,4-dihydroisoquinolin-2(1H)-yl)prop-2-yn-1-one hydrochloride] |
|  |  |  | 0.004 | 8.4 | 0.006 | CCCC[C@H]1Cc2cc(OC)ccc2[C@H](c2ccc(NC34CC5CC(CC(C5)C3)C4)cc2)N1C(=O)CCl [Compound 27, 1-((1S,3S)-1-(4-(((3R,5R,7R)-adamantan-1-yl)amino)phenyl)-3-butyl-6-methoxy-3,4-dihydroisoquinolin-2(1H)-yl)-2-chloroethan-1-one] |
|  |  |  | 0.592 |  |  | COC(=O)c1ccc([C@H]2c3cc(OC)c(OC)cc3C[C@H](C)N2C(=O)CCl)cc1 [Compound 34] |
|  |  |  | 0.002 | 3.6 | 0.005 | CCCC[C@H]1Cc2cc(OC)ccc2[C@H](c2ccc(C(=O)NC3CCC3)cc2)N1C(=O)CCl [Compound 13, 4-((1S,3S)-3-butyl-2-(2-chloroacetyl)-6-methoxy-1,2,3,4-tetrahydroisoquinolin-1-yl)-N-cyclobutylbenzamide] |
|  |  |  | 0.021 | 6.13 | 0.021 | C#CC(=O)N1[C@@H](CCCC)Cc2cc(OC)ccc2[C@@H]1c1ccc(NC(=O)C2CCC2)cc1 [Compound 102, N-(4-((1S,3S)-3-butyl-6-methoxy-2-propioloyl-1,2,3,4-tetrahydroisoquinolin-1-yl)phenyl)cyclobutanecarboxamide] |
|  |  |  | 0.187 | > 10 | 0.623 | C#CC(=O)N1[C@@H](CCCC)Cc2cc(OC)ccc2[C@@H]1C12CC(N)(C1)C2 [Compound 76, 1-((1S,3S)-1-(3-aminobicyclo[1.1.1]pentan-1-yl)-3-butyl-6-methoxy-3,4-dihydroisoquinolin-2(1H)-yl)prop-2-yn-1-one] |
|  |  |  | 0.164 | 8.6 | 0.278 | C#CC(=O)N1[C@H](c2ccc(F)cc2)c2ccc(OC)cc2C[C@@H]1C [Compound 10] |
|  |  |  | 0.742 | 8.7 | 0.855 | COC(=O)c1ccc([C@@H]2c3ccccc3C[C@H](C(=O)OC)N2C(=O)CCl)cc1 [Compound 2, methyl (1R,3R)-2-(2-chloroacetyl)-1-(4-(methoxycarbonyl)phenyl)-1,2,3,4-tetrahydroisoquinoline-3-carboxylate] |
|  |  |  | 0.259 |  |  | COc1ccc2c(c1)C[C@H](C)N(C(=O)CCl)[C@H]2c1ccc(N2CCOCC2)cc1 [Compound 33] |
|  |  |  | 0.065 | > 10 | 0.101 | C#CC(=O)N1[C@@H](CCCC)Cc2cc(OC)ccc2[C@@H]1c1ccn(C)n1 [Compound 50, 1-[(1R,3S)-3-butyl-6-methoxy-1-(1-methyl-1H-pyrazol-3-yl)-1,2,3,4-tetrahydroisoquinolin-2-yl]prop-2-yn-1-one] |
|  |  |  | 0.026 | > 10 | 0.068 | C#CC(=O)N1[C@@H](CCCC)Cc2cc(OC)ccc2[C@@H]1c1ccc2ncccc2c1 [Compound 97, 1-((1S,3S)-3-butyl-6-methoxy-1-(quinolin-6-yl)-3,4-dihydroisoquinolin-2(1H)-yl)prop-2-yn-1-one] |
|  |  |  | 0.108 | > 10 | 0.047 | C#CC(=O)N1[C@@H](CCCC)Cc2cc(OC)ccc2[C@@H]1c1ccc(Nc2cccnc2)cc1 [Compound 94, 1-[(1S,3S)-3-butyl-6-methoxy-1-{4-[(pyridin-3-yl)amino]phenyl}-1,2,3,4-tetrahydroisoquinolin-2-yl]prop-2-yn-1-one] |
|  |  |  | 0.023 | 6.6 | 0.04 | C#CC(=O)N1[C@@H](CCCC)Cc2cc(OC)ccc2[C@@H]1c1ccccn1 [Compound 49, 1-((1R,3S)-3-butyl-6-methoxy-1-(pyridin-2-yl)-3,4-dihydroisoquinolin-2(1H)-yl)prop-2-yn-1-one] |
|  |  |  | 0.163 | > 10 | 0.368 | C#CC(=O)N1[C@@H](CCCC)Cc2cc(OC)ccc2[C@@H]1C12CC(NC(=O)c3ccncc3)(C1)C2 [Compound 96, N-(3-((1S,3S)-3-butyl-6-methoxy-2-propioloyl-1,2,3,4-tetrahydroisoquinolin-1-yl)bicyclo[1.1.1]pentan-1-yl)isonicotinamide] |
|  |  |  | 0.002 | 2.77 | 0.002 | C#CC(=O)N1[C@@H](CCCC)Cc2cc(OC)ccc2[C@@H]1c1ccc(CNC23CC4CC(CC(C4)C2)C3)cc1 [Compound 99] |
|  |  |  |  |  | 2.56 | COC(=O)c1ccc([C@H]2c3ccccc3C[C@H](C)N2C(=O)CCl)cc1 [Compound 35] |
|  |  |  | 0.024 | 7.6 | 0.07 | C#CC(=O)N1[C@@H](CCCC)Cc2cc(OC)ccc2[C@@H]1c1ccc(C(=O)NCCOC)cc1 [Compound 14, 4-((1S,3S)-3-butyl-6-methoxy-2-propioloyl-1,2,3,4-tetrahydroisoquinolin-1-yl)-N-(2 methoxyethyl)benzamide] |
|  |  |  | 3 | > 10 | 3.2 | COC(=O)c1ccc([C@@H]2c3ccc(OC)cc3C[C@H](C)N2C(=O)CCl)cc1 [Compound 6, methyl 4-((1R,3S)-2-(2-chloroacetyl)-6-methoxy-3-methyl-1,2,3,4-tetrahydroisoquinolin-1-yl)benzoate] |
|  |  |  | 0.01 | 3.5 | 0.018 | C#CC(=O)N1[C@@H](CCCC)Cc2cc(OC)ccc2[C@@H]1c1ccc(C(=O)NC2CCC2)nc1 [Compound 15, 5-((1R,3S)-3-butyl-6-methoxy-2-propioloyl-1,2,3,4-tetrahydroisoquinolin-1-yl)-N-cyclobutylpicolinamide] |
|  |  |  | 0.027 | 2.3 | 0.032 | C#CC(=O)N1[C@@H](CCCC)Cc2cc(OC)ccc2[C@@H]1c1ccc(-c2nc(C)no2)cc1 [Compound 55, 1-((1S,3S)-3-butyl-6-methoxy-1-(4-(3-methyl-1,2,4-oxadiazol-5-yl)phenyl)-3,4-dihydroisoquinolin-2(1H)-yl)prop-2-yn-1-one] |
|  |  |  | 0.158 | > 10 | 0.17 | C#CC(=O)N1[C@@H](CCCC)Cc2cc(OC)ccc2[C@@H]1C1CCCCC1 [Compound 39, 1-((1S,3S)-3-butyl-1-cyclohexyl-6-methoxy-3,4-dihydroisoquinolin-2(1H)-yl)prop-2-yn-1-one] |
|  |  |  | 0.013 | 4.06 | 0.021 | C#CC(=O)N1[C@@H](CCCC)Cc2cc(OC)ccc2[C@@H]1c1ccc(CNC23CC(C2)C3)cc1 [Compound 100] |
|  |  |  | 0.137 | 7.8 | 0.22 | COC(=O)c1ccc([C@H]2c3ccc(OC)cc3C[C@H](C)N2C(=O)CCl)cc1 [Compound 7, methyl 4-((1S,3S)-2-(2-chloroacetyl)-6-methoxy-3-methyl-1,2,3,4-tetrahydroisoquinolin-1-yl)benzoate] |
|  |  |  | 2 |  | 2.8 | C[C@H]1Cc2ccccc2C(c2ccc(N3CCOCC3)cc2)N1C(=O)CCl (stereo partly drawn) [Compound 1, 2-chloro-1-((3S)-3-methyl-1-(4-morpholinophenyl)-3,4-dihydroisoquinolin-2(1H)-yl)ethan-1-one] |
